Source: ChEMBL document CHEMBL5729211, “Amine compound for inhibiting SSAO/VAP-1 and use thereof” (2022)

target: T1, Amine oxidase [copper-containing] 3 (Homo sapiens, UniProt Q16853); assay: Biological Assay: 1. Determination of Inhibitory Activity of Human Recombinant SSAO/VAP-1Test purpose: The following methods can be used to determine the inhibitory activity of the compounds described in the examples of the invention for human recombinant SSAO/VAP-1.Test Materials:Human recombinant SSAO/VAP-1 (VAP-1, human) purchased from Sigma, Cat. No. SRP6241;Amplex® Red Monoamine Oxidase Assay Kit purchased from Invitrogen, Cat. No. A12214;384-Well plate purchased from Corning, Cat. No. 6005174;Amplex® Red Hydrogen PeroxidePeroxidase Assay Kit purchased from Invitrogen, Cat. No. A22188.Benzylamine hydrochloride purchased from Sigma, Cat. No. B5136-25G;DMSO (Dimethyl Sulfoxide) purchased from Sigma, Cat. No. D2650-100ML;Test Method:The test compound was dissolved in DMSO and diluted to 10 concentrations in 4-fold serial dilution. In 384 well plates, 25 μL of human recombinant SSAO/VAP-1 (1.6 μg/ml) was added to each well. 100 nL of test compounds with different concentrations were added to each well containing human recombinant SSAO/VAP-1 and incubated at room temperature for 30 min. After 30 min incubation, 25 μl of Amplex® red monoamine oxidase assay kit (containing a reaction mixture of 200 μm Amplex Red reagent, 1 U/ml HRP and 1 mm benzylamine hydrochloride) was added to the corresponding well, and incubated at room temperature and dark for 60 min. After 60 min, the relative fluorescence unit (RFU) was read by using PerkinElmer's Envision at 530-560 nm excitation and 590 nm emission. The curve was drawn by using the graph pad prism 5 software, and the IC50 value was calculated. The results were shown in table 1, wherein the compound listed in table 1 is the compound in the preparation examples with the same compound number:
T1 sequence (Q16853 whole entry): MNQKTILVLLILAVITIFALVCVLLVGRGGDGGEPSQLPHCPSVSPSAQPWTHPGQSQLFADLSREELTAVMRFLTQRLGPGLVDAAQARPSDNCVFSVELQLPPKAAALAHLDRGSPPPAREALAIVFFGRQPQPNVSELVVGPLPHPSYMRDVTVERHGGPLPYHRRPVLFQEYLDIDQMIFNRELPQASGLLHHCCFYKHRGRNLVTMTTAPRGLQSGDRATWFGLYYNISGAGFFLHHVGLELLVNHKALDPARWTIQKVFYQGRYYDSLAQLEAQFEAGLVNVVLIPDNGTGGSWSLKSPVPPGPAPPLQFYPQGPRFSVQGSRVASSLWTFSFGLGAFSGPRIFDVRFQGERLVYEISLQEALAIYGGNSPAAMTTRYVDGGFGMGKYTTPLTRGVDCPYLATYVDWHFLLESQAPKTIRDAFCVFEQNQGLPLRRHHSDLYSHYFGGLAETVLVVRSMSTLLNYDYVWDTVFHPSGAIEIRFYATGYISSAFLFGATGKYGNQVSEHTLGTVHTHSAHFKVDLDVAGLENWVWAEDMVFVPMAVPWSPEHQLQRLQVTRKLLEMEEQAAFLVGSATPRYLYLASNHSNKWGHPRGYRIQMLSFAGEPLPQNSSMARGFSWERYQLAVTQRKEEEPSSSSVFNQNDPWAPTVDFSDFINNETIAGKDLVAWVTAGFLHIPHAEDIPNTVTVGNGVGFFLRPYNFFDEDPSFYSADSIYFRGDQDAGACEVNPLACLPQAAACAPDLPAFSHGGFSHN

Q: How did the IC50 turn out when NC/C(=C\F)COc1ccc2c(c1)CCN(CC1CCOCC1)C2=O was run?
A: 0.22 nM

Q: Which IC50 does the source give for COc1ncc(N2CCc3cc(OC/C(=C/F)CN)ccc3C2=O)cn1 here?
A: 1.44 nM

Q: NC/C(=C/F)COc1ccc2c(c1)CCN(c1ccccn1)C2=O was tested. Which IC50 did it give?
A: 0.77 nM
